Series [1] deals with flavodoxin. The following applies: literature value for a flavodoxin [23]; read-out: dissociation constant; cited from earlier work.
The target of series [2] is T1, Arabidopsis thaliana phototropin 2 (AtPhot2) LOV2 domain (residues 387-492) variant AtminiSOG0.2 (miniSOG0.2, miniSOG), 1387M/N390S/S394T/S409G/C426G/F470L, SEQ ID NO: 2 (Arabidopsis thaliana, UniProt P93025, C426G/F470L/N390S/S394T/S409G).
T1 construct: can be engineered into a small (106-residue) SOG; made in house
Description: Equilibrium dialysis of miniSOG (FMN dissociation constant). Format: binding. The text has this:
Mass spectrometry confirmed that the flavin cofactor is FMN. Equilibrium dialysis reported a dissociation constant of 170±8 pM (Table 2), similar to values for some flavoproteins (e.g., 260±60 pM for a flavodoxin [23]) and consistent with the crystal structures of LOV domains, which show FMN deeply buried inside the protein core.

For series [3] the following is noted: literature value; cited from earlier work.
Series [4] can be described thus: fluorescence quantum yield. The class given is physicochemical. The procedure: (§1) FIG. 3. (A) Absorbance spectrum of miniSOG0.2 determined between 400 nm and 500 nm (B) Normalized absorbance (left) and emission (right) spectra of miniSOG0.2. The fluorescence quantum yield of miniSOG0.2 was determined to be 0.30. (C) ADPA degradation by miniSOG0.2. ADPA was mixed with miniSOG0.2 in PBS and illuminated at 480/30 nm. ADPA emission spectra taken after indicated illumination times. (D) Degradation of ADPA by illumination of miniSOG0.2 (▴) or free FMN (♦). Flavin mononucleotide (FMN) was used as the standard for the quantum yield measurement. The data represents one typical measurement. The averaged absorbance intensity of FMN and miniSOG0.2 in this measurement is 0.064 and 0.070 respectively in arbitrary units. Singlet-oxygen-generation quantum yield of miniSOG0.2 was determined to be 0.47±0.05 (from three independent measurements).
(§2) […] was synthesized by overlap extension PCR [48]. Genetic libraries were constructed by saturation and random mutagenesis and DNA shuffling. Mutants were fused to IFP1.4 by overlap extension PCR and cloned into a modified pBAD vector containing the heme oxygenase-1 gene from cyanobacteria. Libraries were expressed in E. coli strain TOP10 and screened by imaging the agar plates with colonies in the IFP channel before and after blue light illumination. Protein purification and spectroscopic characterization experiments were done as described.

Series [5] is described as follows: 1O2 quantum yield measured with ADPA as 1O2 sensor, FMN as standard. Format: physicochemical. The following applies: for 1O2 (singlet oxygen generation) quantum yield: ADPA sensor in PBS, illuminated at 480/30 nm, FMN standard. The procedure:
as §1
(§3) To increase the brightness of the C426G mutant, we also performed saturation mutagenesis of other residues surrounding the chromophore binding site. […] The ^1O2 quantum yield of miniSOG0.2 (0.47±0.05) was measured using anthracene-9,10-dipropionic acid (ADPA) as a ^1O2 sensor (FIG. 1E). Free FMN was used as the standard for the measurement of ^1O2 generation (quantum yield 0.51).

Series [6] has as its system HEK293 cells. Description: growth rate of HEK293 cells overexpressing the protein, no light. The class given is cell-based. The following applies: for Cell number: HEK293 cells; for toxicity in the absence of light: overexpression in cells, no illumination. The text has this:
(§4) Feedback pathways involving enzymes such as riboflavin kinase (EC 2.7.1.26) and FAD (flavin adenine dinucleotide) diphosphatase (EC 3.6.1.18) probably regulate intracellular FMN to titrate endogenous flavoproteins and miniSOG [25]. Riboflavin kinase phosphorylates riboflavin into FMN, while FAD diphosphatase catalyzes the production of FMN from FAD.
DNA encoding miniSOG with codons optimized for mammals was synthesized by overlap extension PCR [48]. MiniSOG fusions were cloned into pcDNA3.1 vector. HEK293 and HeLa cells were transfected with miniSOG or chimera cDNAs using Fugene, then imaged 24-48 h later. Cultured cortical neurons were transfected by Amaxa electroporation (Lonza AG, Germany) and imaged 1-2 wk later.

Series [7] deals with HEK293 cells. Description: FMN content of HEK293 cells after overexpression. Format: cell-based. The following applies: overexpression in HEK293 cells.
Excerpt: as §4

Series [8] is described as follows: absorbance spectrum, extinction coefficients. Format: physicochemical. How it is done:
as §3, §2

For the molecule `Cc1cc2nc3c(=O)[nH]c(=O)nc-3n(C[C@H](O)[C@H](O)[C@H](O)COP(=O)(O)O)c2cc1C` [FMN, flavin mononucleotide], the Kd is 0.26 ± 0.06 nM in series [1]; 0.124 ± 0.0057 nM in series [2] ([apo] * [FMN]/[holo], equilibrium dialysis, dialysis time 24 hrs); 0.174 ± 0.0053 nM in series [2] ([apo] * [FMN]/[holo], equilibrium dialysis, dialysis time 48 hrs); 0.17 ± 0.0084 nM in series [2] ([apo] * [FMN]/[holo], equilibrium dialysis, dialysis time 72 hrs); approximately 0.1 nM in series [2] (dissociation constant (binds endogenous FMN very tightly), summary statement); 0.17 ± 0.008 nM in series [2] (dissociation constant, equilibrium dialysis, FMN cofactor).
In the case of `Cc1cc2nc3c(=O)[nH]c(=O)nc-3n(C[C@H](O)[C@H](O)[C@H](O)COP(=O)(O)O)c2cc1C` [Free FMN, flavin mononucleotide], the 1O2 quantum yield in series [3] is 0.51.
Regarding `O=c1ccc2nc3ccc(O)c([As]4SCCS4)c3oc-2c1[As]1SCCS1` [ReAsH], the 1O2 quantum yield in series [3] was 0.024.
As for `CC1=NC(=Cc2ccc(O)cc2)C(=O)N1C` [naked GFP chromophore], the 1O2 quantum yield in series [3] is on record as 0.004.
For “AtminiSOG0.2: 106-residue mutant of Arabidopsis thaliana phototropin 2 residues 387-492, 1387M/N390S/S394T/S409G/C426G/F470L, SEQ ID NO:2, binds FMN”, the fluorescence quantum yield is given as 0.30 in series [4] (listed as AtminiSOG), 0.37 in series [4] (listed as miniSOG) and 0.30 in series [4] (listed as miniSOG0.2). The “1O2 quantum efficiency relative to ReAsH on a tetracysteine motif” value in series [5] was “about 20 times”. Besides, the entries for the “1O2 (singlet oxygen generation) quantum yield” value in series [5] (listed as AtminiSOG) and in series [5] (listed as miniSOG0.2) were 0.47 and 0.47±0.05, respectively. The Cell number is 200 10^3 in series [6] (Day 0, transfection efficiency >90%); 390 10^3 in series [6] (Day 1, transfection efficiency >90%); 940 10^3 in series [6] (Day 2, transfection efficiency >90%). For the same molecule, the “toxicity in the absence of light” value in series [6] is listed as “no obvious toxicity”; in series [6] (listed as AtminiSOG) it was “without any obvious toxicity”. The “increase of FMN content” value in series [7] is reported as approximately 3 fold. The extinction coefficient result in series [8] (at 448 nm) was “(16.7±0.7)×10^3 M^−1cm^−1”; in series [8] (at 448 nm, listed as AtminiSOG), 16,700 M^−1cm^−1; in series [8] (at 473 nm), “(13.6±0.5)×10^3 M^−1cm^−1”; in series [8] (at 473 nm, listed as AtminiSOG), 13,600 M^−1cm^−1.
